From US5547674A, “Pharmaceutical preparations derived from European mistletoe” (priority 1995, dated 1996)

Legend:
[1] = system: C3H Mammary adenocarcinoma 16/C; experiment: Growth of subcutaneous transplants of C3H mammary adenocarcinoma 16/C in B6C3F1 female mice; assay type: in vivo; conditions: i.p., 98 mg/kg, qd (1,7,14,21)
Method: (§1) The amount of protein in the alkaloidal and viscotoxin fractions were also determined to be within the required fingerprint ranges. Anticancer activities of T4GEN were studied in animals bearing subcutaneous transplants of C3H Mammary adenocarcinoma 16/C. This tumor is maintained as a lung framed tumor in C3H female mice. In this example, tumors (1×10^6 cells) were transplanted (S.C.) in 18-20 g B6C3F1 hybrid female mice. On the following day, the tumor beating animals were randomized and separated into different treatment groups (10 mice per group). There were 15 animals in the control group who received only physiological saline during the treatment periods. The treatments (i.p.) were staged 48 hours after the transplants and given for a duration of 14 days (daily single injections).Animals were weighed on days 5, 9 and 14 to assess toxic effects. Tumors were measured on day 21 post transplants and the results are represented as tumor weights using formula [formula] (l=length of tumor, w=width of tumor expressed in mm).

[2] = Weight change of tumor bearing B6C3F1 mice (toxic effects); assay type: in vivo; conditions: i.p., 98 mg/kg, qd (1,7,14,21)
Method: as §1

AIDS patients = conditions: human, in vivo; cited from earlier work
reverse transcriptase = conditions: cited from earlier work

Structure (SMILES) | Tumor Weight Inhibition [1] [%] | Tumor Wts (day 21) ([1]; saline controls 0.27) | Tumor Free Animals (day 93) ([1]; saline controls 1/15) | Δ Wts (day 14) [2] | toxic side effects (AIDS patients) | inhibition of reverse transcriptase (reverse transcriptase)
O=c1[nH]cc(F)c(=O)[nH]1 [5FIuorouracil] | 100 | 0.00 | 0/6 | +1.77 g |  | 
Cc1cn([C@H]2C[C@H](N=[N+]=[N-])[C@@H](CO)O2)c(=O)[nH]c1=O [AZT, azidothymidine] |  |  |  |  | serious toxic side effects including immunosuppression | 
Nc1ccn([C@H]2CC[C@@H](CO)O2)c(=O)n1 [ddC, 2',3'-dideoxycytidine] |  |  |  |  | serious toxic side effects including immunosuppression | inhibit reverse transcriptase
OC[C@@H]1CC[C@H](n2cnc3c(O)ncnc32)O1 [ddI, 2',3'-dideoxyinosine] |  |  |  |  | serious toxic side effects including immunosuppression | inhibit reverse transcriptase
